Active and inactive are the calls of the source.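 How the source made its calls: active means fitted dose curve reaches 40% lysis signal rise at or below the highest valid concentration tested for that sample; inconclusive means flat fit between 30% and 70%, or poor curve fit; inactive means signal falls, stays flat within 30%, or no crossing.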
Test system: C. neoformans lysis, adenylate kinase release luminescence, 4 h
Assay: C. neoformans lysis by adenylate kinase leakage – AK release luminescence, cherry-picks, dose response (AID 687000)

With C[C@@H]1CN([C@@H](C)CO)C(=O)Cc2cc(NC(=O)c3ccncc3)ccc2O[C@H]1CN(C)Cc1ccncc1 the AC40 was > 15 µM (inactive).
For COCC(=O)NC[C@H]1N[C@H](CO)[C@H]1c1ccc(C2=CCCC2)cc1, the AC40 was > 15 µM (inactive).
For COc1cc2c(C(=O)N(C)c3cc(Cl)ccc3OC)cn(C)c(=O)c2cc1OC, the AC40 was > 15 µM (inactive).
For C[C@@H]1CCCCO[C@@H](CN(C)C(=O)CCCN(C)C)[C@@H](C)CN([C@H](C)CO)C(=O)c2cc(NC(=O)Cc3ccccc3)ccc2O1, the AC40 was 14.8 µM.
C[C@H](CO)N1C[C@H](C)[C@@H](CN(C)Cc2ccc(-c3ccccc3)cc2)Oc2ccc(NC(=O)Nc3ccc(C(F)(F)F)cc3)cc2C1=O was tested, and the AC40 was > 15 µM (inactive).
With CC=Cc1ccc2n(c1=O)C[C@@H]1[C@@H](CO)[C@H](C(=O)N3CCc4ccccc4C3)N(C(=O)C3CC3)[C@H]21 (mixture of isomers) the AC40 was > 15 µM (inactive).
For C[C@@H]1CCCCO[C@@H](CN(C)C(=O)Nc2cccc3ccccc23)[C@@H](C)CN([C@H](C)CO)C(=O)c2cc(NS(=O)(=O)c3ccccc3)ccc2O1, the AC40 was 14.2 µM.
For Cc1ccccc1NC(=O)C(=O)NCCCN1CCCC1=O, the AC40 was > 15 µM (inactive).
For Cc1cccc(C)c1NC(=O)C1CCCN1C(=O)NCc1ccccc1 (stereo unspecified), the AC40 was > 15 µM (inactive).
In the case of COCCNC(=O)C[C@H]1C[C@@H]2c3cc(NC(=O)C4CCC4)ccc3O[C@@H]2[C@H](CO)O1, the AC40 was > 15 µM (inactive).
COc1ccccc1NC(=S)NCc1ccc(Cl)cc1 gave an AC40 of 2.19 µM.
Cc1noc(C)c1NC(=O)Nc1ccc2c(c1)C(=O)N([C@@H](C)CO)C[C@H](C)[C@H](CN(C)CC1CCCCC1)O2 was tested, and the AC40 was > 15 µM (inactive).
In the case of CCN(Cc1ccccc1)C(=O)COc1ccccc1, the AC40 was > 15 µM (inactive).
With COC(=O)C1=C(C)N(C)C(=S)NC1c1ccccc1 (stereo unspecified) the AC40 was > 26 µM (inactive).
In the case of CCOC(=O)c1c(-c2ccc(-c3ccccc3)cc2)csc1NC(=O)CNCCN(C)C, the AC40 was 1.62 µM.
Cc1ccccc1NC(=S)NC(=O)CCc1ccccc1 showed an AC40 of 4.93 µM.
